In this experiment the target is T1, human A1 adenosine receptors (Homo sapiens, UniProt P30542).
T1 construct: expressed in transfected cells; host or cells: CHO cells (membranes)
T1 sequence (P30542 1-326): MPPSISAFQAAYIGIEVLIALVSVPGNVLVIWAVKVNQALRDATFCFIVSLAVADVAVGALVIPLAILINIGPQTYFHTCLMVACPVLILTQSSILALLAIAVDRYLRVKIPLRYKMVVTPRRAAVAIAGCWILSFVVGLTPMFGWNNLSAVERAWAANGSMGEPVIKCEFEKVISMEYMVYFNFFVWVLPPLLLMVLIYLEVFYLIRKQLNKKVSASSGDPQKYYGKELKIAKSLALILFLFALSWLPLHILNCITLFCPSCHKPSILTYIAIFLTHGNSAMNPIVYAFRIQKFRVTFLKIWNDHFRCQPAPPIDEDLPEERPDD
Description: Displacement of [3H]DPCPX binding at human A1 adenosine receptors expressed in CHO cells. Particulars: [3H]DPCPX displacement, n = 3-6, geometric mean (95% confidence limits), read-out: Ki hA1. As to the method: The human adenosine receptors have been transfected in CHO cells according with the method previously described by Klotz et al. (Naunyn-Schmied. Arch Pharm. 1998, 357: 1-9). Briefly, the cells are grown adherently and maintained in Dulbecco's Modified Eagles Medium with nutrient mixture F12 (DMEM/F12) without nucleosides, containing 10% fetal calf serum, penicillin (100 U/mL), streptomycin (100 μg/mL), L-glutamine (2 mM) and Geneticin (G418, 0.2 mg/ml) at 37° C. in 5% CO2/95% air. For membrane preparation the culture medium is removed and the cells are washed with phosphate-buffered saline and scraped off T75 flasks in ice-cold hypo tonic buffer (5 mM Tris HCl, 1 mM EDTA, pH 7.4). The cell suspension is homogenized with Polytron, the homogenate is spun for 10 min at 1000×g and the supernatant is then centrifuged for 30 min at 100,000×g. The membrane pellet is suspended in 50 mM Tris HCl buffer (pH 7.4) for A1 adenosine receptors, in 50 mM Tris HCl, 10 mM MgCl2 (pH 7.4) for A2A adenosine receptors, in 50 mM Tris HCl, 10 mM MgCl2, 1 mM EDTA (pH 7.4) for A2B and A3 adenosine receptors.
All new synthesized compounds have been tested to evaluate their affinity to human A1, A2A, A2B and A3 adenosine receptors. Displacement experiments of [^3H]-DPCPX to CHO cells transfected with the human recombinant A1 adenosine receptors are performed for 120 min at 25° C. incubating diluted membranes (50 μg of protein/assay) and at least 6-8 different concentrations of examined antagonists (Varani et al., Mol. Pharmacol., 2000, 57: 968-975). Non-specific binding is determined in the presence of 10 μM of CHA and this is always ≦10% of the total binding. Binding of [^3H]-ZM 241385 to CHO cells transfected with the human recombinant A2A adenosine receptors is performed using a suspension of membranes (50 μg of protein/assay) and at least 6-8 different concentrations of studied antagonists for an incubation time of 60 min at 4° C. Non-specific binding is determined in the presence of 1 μM ZM 241385 and is about 20% of total binding. Competition binding experiments of [^3H]-MRE 2029F20 to CHO cells transfected with the human recombinant A2B adenosine receptors are carried out incubating for 120 min at 4° C. diluted membranes (50 μg of protein/assay) and at least 6-8 different concentrations of examined compounds. Non-specific binding is defined as binding in the presence of 1 μM MRE 3029F20 and is about 25% of total binding. Competition binding experiments of [^3H]-MRE 3008F20 to CHO cells transfected with the human recombinant A3 adenosine receptors^5 are carried out incubating for 120 min at 4° C. diluted membranes (50 μg of protein/assay) and at least 6-8 different concentrations of examined ligands. Non-specific binding is defined as binding in the presence of 1 μM MRE 3008F20 and is about 25% of total binding. Bound and free radioactivity are separated by filtering the assay mixture through Whatman GF/B glass fiber filters using a Micro-Mate 196 cell harvester (Packard Instrument Co.). The filter bound radioactivity is counted on a Top Count (efficiency 57%) with Micro-Scint 20.
The protein concentration is determined according to a Bio-Rad method (Bradford, Anal Biochem. 1976, 72: 248-254) with bovine albumin as a standard reference. Inhibitory binding constant, Ki, values are calculated from those of IC50 according to Cheng & Prusoff equation (Biochem. Pharmacol 1973, 22: 3099-3108): Ki=IC50/(1+[C*]/KD*) where [C*] is the concentration of the radioligand and KD* its dissociation constant. A weighted non linear least-squares curve fitting program LIGAND (Munson et al., Anal. Biochem 1980, 107: 220-239) is used for computer analysis of inhibition experiments Data are expressed as geometric mean with 95% confidence limits in parentheses. Examples of Animal Models

pKi: −log10 of the molar value.

As for `CCCn1c(=O)c2[nH]c(-c3cc(C)n(CC(=O)Nc4cccc(OC)c4)n3)nc2n(CCC)c1=O` [Example 14, 2-[3-(2,6-Dioxo-1,3-dipropyl-2,3,6,7-tetrahydro-1H-purin-8-yl)-5-methyl-pyrazol-1-yl]-N-(3-methoxylphenyl)-acetamide], the pKi is 6.32.

For `CCCn1c(=O)c2[nH]c(-c3cc(C)n(CC(=O)Nc4ccc(C)cc4)n3)nc2n(CCC)c1=O` [Example 17, 2-[3-(2,6-Dioxo-1,3-dipropyl-2,3,6,7-tetrahydro-1H-purin-8-yl)-5-methyl-pyrazol-1-yl]-N-p-tolyl-acetamide], the pKi was less than 6.00.

Consider `CCCn1c(=O)c2[nH]c(-c3ccn(CC(=O)Nc4ccc(Cl)cc4)n3)nc2n(CCC)c1=O` [Example 10, 2-[3-(2,6-Dioxo-1,3-dipropyl-2,3,6,7-tetrahydro-1H-purin-8-yl)-pyrazol-1-yl]-N-(4-chloro-phenyl)-acetamide], for which the pKi was 6.85.

Consider `CCCn1c(=O)c2[nH]c(-c3cc(C)n(CC(=O)Nc4ccc(C(C)CC)cc4)n3)nc2n(CCC)c1=O` (centres unmarked) [Example 12, 2-[3-(2,6-Dioxo-1,3-dipropyl-2,3,6,7-tetrahydro-1H-purin-8-yl)-5-methyl-pyrazol-1-yl]-N-(4-sec-butylphenyl)-acetamide], for which the pKi was less than 6.00.

Consider `CCCn1c(=O)c2[nH]c(-c3cc(C)n(CC(=O)Nc4ccc(OC)c(OC)c4)n3)nc2n(CCC)c1=O` [Example 8, 2-[3-(2,6-Dioxo-1,3-dipropyl-2,3,6,7-tetrahydro-1H-purin-8-yl)-5-methyl-pyrazol-1-yl]-N-(3,4-dimethoxyphenyl)-acetamide], for which the pKi is less than 6.00.

Take `CCCn1c(=O)c2[nH]c(-c3cc(C)n(CC(=O)Nc4ccc(OC)cc4)n3)nc2n(CCC)c1=O` [Example 6, 2-[3-(2,6-Dioxo-1,3-dipropyl-2,3,6,7-tetrahydro-1H-purin-8-yl)-5-methyl-pyrazol-1-yl]-N-(4-methoxyphenyl)-acetamide]: the pKi was less than 6.00.

In the case of `CCCn1c(=O)c2[nH]c(-c3cc(C)n(CC(=O)Nc4ccccc4)n3)nc2n(CCC)c1=O` [Example 1, 2-[3-(2,6-Dioxo-1,3-dipropyl-2,3,6,7-tetrahydro-1H-purin-8-yl)-5-methyl-pyrazol-1-yl]-N-phenyl-acetamide], the pKi is 6.46.

In the case of `CCCn1c(=O)c2[nH]c(-c3cc(C)n(CC(=O)Nc4ccc(C)c(C)c4)n3)nc2n(CCC)c1=O` [Example 7, 2-[3-(2,6-Dioxo-1,3-dipropyl-2,3,6,7-tetrahydro-1H-purin-8-yl)-5-methyl-pyrazol-1-yl]-N-(3,4-dimethylphenyl)-acetamide], the pKi was less than 6.00.

In the case of `CCCn1c(=O)c2[nH]c(-c3cc(C)n(CC(=O)Nc4cccc(Cl)c4)n3)nc2n(CCC)c1=O` [Example 15, 2-[3-(2,6-Dioxo-1,3-dipropyl-2,3,6,7-tetrahydro-1H-purin-8-yl)-5-methyl-pyrazol-1-yl]-N-(3-chlorophenyl)-acetamide], the pKi is 6.17.

Regarding `CCCn1c(=O)c2[nH]c(-c3cc(C)n(CC(=O)Nc4ccc(F)cc4)n3)nc2n(CCC)c1=O` [Example 5, 2-[3-(2,6-Dioxo-1,3-dipropyl-2,3,6,7-tetrahydro-1H-purin-8-yl)-5-methyl-pyrazol-1-yl]-N-(4-fluoro-phenyl)-acetamide], the pKi was 6.30.

`CCCn1c(=O)c2[nH]c(-c3nn(CC(=O)Nc4ccc(Cl)cc4)c(C)c3Cl)nc2n(CCC)c1=O` [Example 18, 2-[4-Chloro-3-(2,6-dioxo-1,3-dipropyl-2,3,6,7-tetrahydro-1H-purin-8-yl)-5-methyl-pyrazol-1-yl]-N-(4-chlorophenyl)-acetamide]: the pKi is less than 6.00.

In the case of `CCCn1c(=O)c2[nH]c(-c3cc(C)n(CC(=O)Nc4ccc(Cl)c(Cl)c4)n3)nc2n(CCC)c1=O` [Example 16, 2-[3-(2,6-Dioxo-1,3-dipropyl-2,3,6,7-tetrahydro-1H-purin-8-yl)-5-methyl-pyrazol-1-yl]-N-(3,4-dichlorophenyl)-acetamide], the pKi was less than 6.00.

With `CCCn1c(=O)c2[nH]c(-c3nn(CC(=O)Nc4ccc(Cl)cc4)c(C)c3Br)nc2n(CCC)c1=O` [Example 19, 2-[4-Bromo-3-(2,6-dioxo-1,3-dipropyl-2,3,6,7-tetrahydro-1H-purin-8-yl)-5-methyl-pyrazol-1-yl]-N-(4-chlorophenyl)-acetamide], the pKi was less than 6.00.

Consider `CCCn1c(=O)c2[nH]c(-c3cc(C)n(CC(=O)Nc4ccc(I)cc4)n3)nc2n(CCC)c1=O` [Example 2, 2-[3-(2,6-Dioxo-1,3-dipropyl-2,3,6,7-tetrahydro-1H-purin-8-yl)-5-methyl-pyrazol-1-yl]-N-(4-iodophenyl)-acetamide], for which the negative-log Ki (pKi) is less than 6.00.
